Reference: ChEMBL document CHEMBL4130359, “Indazole-based ligands for estrogen-related receptor α as potential anti-diabetic agents” (Eur J Med Chem, 2017)

What was measured:
[1] = target: Oxysterols receptor LXR-alpha (Homo sapiens, UniProt Q13133); assay: Agonist activity at recombinant GST-tagged human LXRalpha LBD assessed as fluorescein-labeled coactivator peptide recruitment preincubated with enzyme followed by coactivator addition by LanthaScreen TR-FRET assay
[2] = target: Peroxisome proliferator-activated receptor alpha (Homo sapiens, UniProt Q07869); assay: Antagonist activity at recombinant GST-tagged human PPARalpha LBD assessed as inhibition of GW7647-induced fluorescein-labeled coactivator peptide recruitment preincubated with enzyme followed by coactivator addition by LanthaScreen TR-FRET assay
[3] = target: Peroxisome proliferator-activated receptor delta (Homo sapiens, UniProt Q03181); assay: Antagonist activity at recombinant GST-tagged human PPARdelta LBD assessed as inhibition of GW0742-induced fluorescein-labeled coactivator peptide recruitment preincubated with enzyme followed by coactivator addition by LanthaScreen TR-FRET assay
[4] = target: Retinoic acid receptor RXR-alpha (Homo sapiens, UniProt P19793); assay: Antagonist activity at recombinant GST-tagged human RXRalpha LBD assessed as inhibition of 9-cis-retinoic acid-induced fluorescein-labeled coactivator peptide recruitment preincubated with enzyme followed by coactivator addition by LanthaScreen TR-FRET assay
[5] = target: Steroid hormone receptor ERR2 (Homo sapiens, UniProt O95718); assay: Antagonist activity at recombinant GST-tagged human ERRbeta LBD assessed as inhibition of fluorescein-labeled coactivator peptide recruitment preincubated with enzyme followed by coactivator addition by LanthaScreen TR-FRET assay
[6] = Tmax in ob/ob mouse at 18 mg/kg administered via oral gavage by LC-MS analysis; type: ADME, organism-based; conditions: in vivo
[7] = Terminal half life in CD-1 mouse at 20 mg/kg administered via oral gavage by LC-MS analysis; type: ADME, organism-based; conditions: in vivo, read-out: beta t1/2 (converted)
[8] = Terminal half life in Sprague-Dawley rat at 10 mg/kg administered via oral gavage by LC-MS analysis; type: ADME, organism-based; conditions: in vivo, read-out: beta t1/2 (converted)
Rattus norvegicus [9] = assay: Antidiabetic activity in Zucker rat sub-chronic fa/fa prediabetic model assessed as reduction in blood glucose AUC (0 to 120 min) at 10 mg/kg, po qd for 31 days measured on day 29 post dose by OGTT relative to control; type: functional; design: scale not given: the % may be the effect or the level left
Rattus norvegicus [10] = assay: Antidiabetic activity in Zucker rat sub-chronic fa/fa prediabetic model assessed as blood glucose AUC (0 to 120 min) at 3 mg/kg, po qd for 31 days measured on day 29 post dose by OGTT (reference value: 41471 +/- 2451 mg.min/dL); type: functional
Rattus norvegicus [11] = assay: Toxicity in Zucker rat sub-chronic fa/fa prediabetic model assessed as epididymal white adipose tissue weight at 50 mg/kg, po qd for 31 days measured on day 32 (reference value: 13.9 +/- 0.6 g); type: organism-based; conditions: in vivo, 744 h
Rattus norvegicus [12] = assay: Toxicity in Zucker rat sub-chronic fa/fa prediabetic model assessed as serum triglyceride level at 3 mg/kg, po qd for 31 days measured on day 32 (reference value: 1382 +/- 268 mg/dl); type: organism-based; conditions: in vivo, 744 h
Rattus norvegicus [13] = assay: Toxicity in Zucker rat sub-chronic fa/fa prediabetic model assessed as serum ALT level at 1 mg/kg, po qd for 31 days measured on day 32 (reference value: 151 +/- 23 U/L); type: organism-based; conditions: in vivo, 744 h
Rattus norvegicus [14] = assay: Toxicity in Zucker rat sub-chronic fa/fa prediabetic model assessed as serum ALT level at 3 mg/kg, po qd for 31 days measured on day 32 (reference value: 151 +/- 23 U/L); type: organism-based; conditions: in vivo, 744 h
Rattus norvegicus [15] = assay: Toxicity in Zucker rat sub-chronic fa/fa prediabetic model assessed as serum creatinine level at 1 mg/kg, po qd for 31 days measured on day 32 (reference value: 0.71 +/- 0.07 mg/dl); type: organism-based; conditions: in vivo, 744 h
Rattus norvegicus [16] = assay: Toxicity in Zucker rat sub-chronic fa/fa prediabetic model assessed as serum creatinine level at 50 mg/kg, po qd for 31 days measured on day 32 (reference value: 0.71 +/- 0.07 mg/dl); type: organism-based; conditions: in vivo, 744 h
Rattus norvegicus [17] = type: functional, Zucker
[18] = AUC (0 to 24 hrs) in […] model at 3 mg/kg, po qd for 28 days measured on day 28 post last dose; type: ADME, organism-based; design: dose 3 mg/kg, time < 24 hr, route oral; conditions: in vivo
[19] = AUC (0 to 24 hrs) in […] model at 50 mg/kg, po qd for 28 days measured on day 28 post last dose; type: ADME, organism-based; design: dose 50 mg/kg, time < 24 hr, route oral; conditions: in vivo
Rattus norvegicus [20] = assay: Toxicity in […] model assessed as liver weight at 3 mg/kg, po qd for 31 days measured on day 32 (reference value: 2.77 +/- 0.16 g); type: organism-based; conditions: in vivo, 744 h
Rattus norvegicus [21] = assay: Toxicity in […] chronic ob/ob model assessed as epididymal white adipose tissue weight at 3 mg/kg, po qd for 31 days measured on day 32 (reference value: 3.92 +/- 0.14 g); type: organism-based; conditions: in vivo, 744 h
Rattus norvegicus [22] = assay: Toxicity in […] chronic ob/ob model assessed as brown adipose tissue weight at 10 mg/kg, po qd for 31 days measured on day 32 (reference value: 0.59 +/- 0.05 g); type: organism-based; conditions: in vivo, 744 h
Rattus norvegicus [23] = assay: Toxicity in […] chronic ob/ob model assessed as brown adipose tissue weight at 50 mg/kg, po qd for 31 days measured on day 32 (reference value: 0.59 +/- 0.05 g); type: organism-based; conditions: in vivo, 744 h
Rattus norvegicus [24] = assay: Toxicity in […] chronic ob/ob model assessed as decrease in epididymal white adipose tissue weight at administered po qd for 31 days measured on day 32; type: organism-based; conditions: in vivo, 744 h
Rattus norvegicus [25] = assay: Effect on NDUFS1 gene expression in epididymal white adipose tissue of Zucker rat sub-chronic fa/fa prediabetic model at 10 mg/kg, po qd for 15 days by microarray analysis relative to control; type: functional
Rattus norvegicus [26] = assay: Effect on NDUFS4 gene expression in epididymal white adipose tissue of Zucker rat sub-chronic fa/fa prediabetic model at 10 mg/kg, po qd for 15 days by microarray analysis relative to control; type: functional
Rattus norvegicus [27] = assay: Effect on NFKBIB gene expression in epididymal white adipose tissue of Zucker rat sub-chronic fa/fa prediabetic model at 10 mg/kg, po qd for 15 days by microarray analysis relative to control; type: functional
Rattus norvegicus [28] = assay: Effect on ADRA2C gene expression in epididymal white adipose tissue of Zucker rat sub-chronic fa/fa prediabetic model at 10 mg/kg, po qd for 15 days by microarray analysis relative to control; type: functional
Rattus norvegicus [29] = assay: Effect on THEM4 gene expression in epididymal white adipose tissue of Zucker rat sub-chronic fa/fa prediabetic model at 10 mg/kg, po qd for 15 days by microarray analysis relative to control; type: functional
Rattus norvegicus [30] = assay: Effect on ACOT2 gene expression in epididymal white adipose tissue of Zucker rat sub-chronic fa/fa prediabetic model at 10 mg/kg, po qd for 15 days by microarray analysis relative to control; type: functional
Rattus norvegicus [31] = assay: Effect on IL36B gene expression in epididymal white adipose tissue of Zucker rat sub-chronic fa/fa prediabetic model at 10 mg/kg, po qd for 15 days by microarray analysis relative to control; type: functional
Rattus norvegicus [32] = assay: Effect on HSP90B1 gene expression in epididymal white adipose tissue of Zucker rat sub-chronic fa/fa prediabetic model at 10 mg/kg, po qd for 15 days by microarray analysis relative to control; type: functional

Peroxisome proliferator-activated receptor alpha, sequence (Q07869 whole entry, the tested form may be a part): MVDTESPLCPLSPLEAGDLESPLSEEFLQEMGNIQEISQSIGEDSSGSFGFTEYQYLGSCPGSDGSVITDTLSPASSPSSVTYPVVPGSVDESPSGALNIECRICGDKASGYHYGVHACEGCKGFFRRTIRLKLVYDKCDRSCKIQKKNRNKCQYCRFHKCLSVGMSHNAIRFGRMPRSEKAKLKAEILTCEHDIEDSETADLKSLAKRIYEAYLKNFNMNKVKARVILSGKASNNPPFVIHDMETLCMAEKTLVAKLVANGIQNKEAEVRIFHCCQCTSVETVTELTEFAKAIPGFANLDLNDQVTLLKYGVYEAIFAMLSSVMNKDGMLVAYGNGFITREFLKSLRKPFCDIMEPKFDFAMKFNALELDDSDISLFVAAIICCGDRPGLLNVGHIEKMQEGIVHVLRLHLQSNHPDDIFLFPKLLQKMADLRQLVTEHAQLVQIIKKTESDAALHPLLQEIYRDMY
Steroid hormone receptor ERR2, sequence (O95718 whole entry, the tested form may be a part): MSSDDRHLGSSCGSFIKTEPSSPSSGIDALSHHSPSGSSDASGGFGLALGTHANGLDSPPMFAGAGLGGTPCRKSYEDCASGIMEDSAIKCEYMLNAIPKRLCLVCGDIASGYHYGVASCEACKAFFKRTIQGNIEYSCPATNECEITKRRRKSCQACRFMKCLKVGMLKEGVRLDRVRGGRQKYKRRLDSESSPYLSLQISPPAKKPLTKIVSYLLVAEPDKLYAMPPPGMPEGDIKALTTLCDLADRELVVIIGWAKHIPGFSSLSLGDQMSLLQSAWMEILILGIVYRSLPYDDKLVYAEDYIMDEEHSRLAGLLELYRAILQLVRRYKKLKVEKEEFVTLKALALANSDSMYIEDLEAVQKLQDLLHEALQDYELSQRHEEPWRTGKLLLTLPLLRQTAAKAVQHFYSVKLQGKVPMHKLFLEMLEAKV
Peroxisome proliferator-activated receptor delta, sequence (Q03181 whole entry, the tested form may be a part): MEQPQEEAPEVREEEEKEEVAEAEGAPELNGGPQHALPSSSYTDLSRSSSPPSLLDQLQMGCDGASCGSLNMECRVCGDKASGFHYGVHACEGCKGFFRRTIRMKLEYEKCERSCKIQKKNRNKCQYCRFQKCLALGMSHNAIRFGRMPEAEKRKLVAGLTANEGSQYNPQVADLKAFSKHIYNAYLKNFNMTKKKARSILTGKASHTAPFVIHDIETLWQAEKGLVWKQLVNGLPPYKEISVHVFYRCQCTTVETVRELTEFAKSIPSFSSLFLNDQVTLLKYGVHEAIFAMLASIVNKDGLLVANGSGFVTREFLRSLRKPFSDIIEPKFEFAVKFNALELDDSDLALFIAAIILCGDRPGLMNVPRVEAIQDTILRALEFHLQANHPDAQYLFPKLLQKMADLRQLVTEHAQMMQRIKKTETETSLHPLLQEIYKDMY
Retinoic acid receptor RXR-alpha, sequence (P19793 whole entry, the tested form may be a part): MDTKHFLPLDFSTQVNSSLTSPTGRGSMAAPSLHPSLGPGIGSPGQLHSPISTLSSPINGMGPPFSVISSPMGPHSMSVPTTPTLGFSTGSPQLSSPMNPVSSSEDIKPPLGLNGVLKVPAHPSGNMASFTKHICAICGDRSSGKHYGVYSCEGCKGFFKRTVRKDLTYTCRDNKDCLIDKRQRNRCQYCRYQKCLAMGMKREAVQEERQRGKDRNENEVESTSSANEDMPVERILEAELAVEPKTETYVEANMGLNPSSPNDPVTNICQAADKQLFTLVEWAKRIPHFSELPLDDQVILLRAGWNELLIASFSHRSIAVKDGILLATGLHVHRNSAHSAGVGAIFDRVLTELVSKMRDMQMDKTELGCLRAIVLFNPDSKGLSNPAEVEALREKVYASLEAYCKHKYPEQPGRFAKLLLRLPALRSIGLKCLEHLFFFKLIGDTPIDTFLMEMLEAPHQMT
Oxysterols receptor LXR-alpha, sequence (Q13133 whole entry, the tested form may be a part): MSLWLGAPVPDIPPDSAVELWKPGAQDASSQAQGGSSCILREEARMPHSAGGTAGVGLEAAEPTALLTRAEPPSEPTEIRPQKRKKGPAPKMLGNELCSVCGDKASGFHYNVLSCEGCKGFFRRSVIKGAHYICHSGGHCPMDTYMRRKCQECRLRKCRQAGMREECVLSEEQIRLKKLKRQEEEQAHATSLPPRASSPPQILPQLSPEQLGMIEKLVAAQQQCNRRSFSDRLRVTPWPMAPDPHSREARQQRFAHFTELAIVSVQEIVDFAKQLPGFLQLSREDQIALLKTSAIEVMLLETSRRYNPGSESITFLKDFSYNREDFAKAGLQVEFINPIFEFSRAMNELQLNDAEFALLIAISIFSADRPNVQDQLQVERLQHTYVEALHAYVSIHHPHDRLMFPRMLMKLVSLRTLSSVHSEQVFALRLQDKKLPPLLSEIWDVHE

Question: Which EC50 [1] does the source give for CN1CC[C@@H](N2C(=O)S/C(=C\c3ccc4c(cnn4Cc4ccc(Cl)cc4C(F)(F)F)c3)C2=O)[C@H](F)C1 here?
Answer: > 10 µM

Question: And the IC50 [2]?
Answer: > 10 µM

Question: And the IC50 [3]?
Answer: > 10 µM

Question: What about the IC50 [4] of the same molecule?
Answer: > 10 µM

Question: And the IC50 [5]?
Answer: > 10 µM

Question: And the Tmax [6]?
Answer: 2 h

Question: What about the half-life [7] of the same molecule?
Answer: 10.6 h

Question: What about the half-life [8] of the same molecule?
Answer: 4.7 h

Question: And the Activity (Rattus norvegicus [9])?
Answer: 55%

Question: And the Activity (Rattus norvegicus [10])?
Answer: 26306 mg·min/dL

Question: And the Activity (Rattus norvegicus [11])?
Answer: 19.3 g

Question: What about the Activity (Rattus norvegicus [12]) of the same molecule?
Answer: 584 mg/dL

Question: What about the Activity (Rattus norvegicus [13]) of the same molecule?
Answer: 159 U/L

Question: And the Activity (Rattus norvegicus [14])?
Answer: 117 U/L

Question: What about the Activity (Rattus norvegicus [15]) of the same molecule?
Answer: 0.66 mg/dL

Question: What about the Activity (Rattus norvegicus [16]) of the same molecule?
Answer: 0.54 mg/dL

Question: And the Activity (Rattus norvegicus [17])?
Answer: 56958 mg·min/dL

Question: And the AUC at 24 h [18]?
Answer: 2150 ng·h/mL

Question: What about the AUC at 24 h [19] of the same molecule?
Answer: 31600 ng·h/mL

Question: And the Activity (Rattus norvegicus [20])?
Answer: 2.65 g

Question: What about the Activity (Rattus norvegicus [21]) of the same molecule?
Answer: 3.44 g

Question: And the Activity (Rattus norvegicus [22])?
Answer: 0.99 g

Question: What about the Activity (Rattus norvegicus [23]) of the same molecule?
Answer: 1.31 g

Question: And the Activity (Rattus norvegicus [24])?
Answer: Dose-dependent effect

Question: And the “fold change (FC)” value (Rattus norvegicus [25])?
Answer: 1.561

Question: What about the “fold change (FC)” value (Rattus norvegicus [26]) of the same molecule?
Answer: 1.239

Question: What about the “fold change (FC)” value (Rattus norvegicus [27]) of the same molecule?
Answer: 1.31

Question: And the “fold change (FC)” value (Rattus norvegicus [28])?
Answer: -1.52

Question: And the “fold change (FC)” value (Rattus norvegicus [29])?
Answer: 1.465

Question: And the “fold change (FC)” value (Rattus norvegicus [30])?
Answer: 1.364

Question: What about the “fold change (FC)” value (Rattus norvegicus [31]) of the same molecule?
Answer: -1.232

Question: What about the “fold change (FC)” value (Rattus norvegicus [32]) of the same molecule?
Answer: -1.258
